From patent US10358436B2, “Kinase inhibitors and method of treating cancer” (University Health Network, priority 2010, dated 2019)

Key:
[1] = biological target: Abl (Homo sapiens (Human), UniProt P00519); test: Kinase selectivity assay (CEREP HTRF panel); type: biochemical
[2] = biological target: Akt1/PKBalpha (Homo sapiens (Human), UniProt P31749); test: Kinase selectivity assay (CEREP HTRF panel); type: biochemical
[3] = biological target: BMX kinase (Etk) (Homo sapiens (Human), UniProt P51813); test: Kinase selectivity assay (CEREP HTRF panel); type: biochemical
[4] = biological target: Brk (Homo sapiens (Human), UniProt Q13882); test: Kinase selectivity assay (CEREP HTRF panel); type: biochemical
[5] = biological target: CaMK2alpha (Homo sapiens (Human), UniProt Q9UQM7); test: Kinase selectivity assay (CEREP HTRF panel); type: biochemical
[6] = biological target: CaMK4 (Homo sapiens (Human), UniProt Q16566); test: Kinase selectivity assay (CEREP HTRF panel); type: biochemical
[7] = biological target: CHK1 (Homo sapiens (Human), UniProt O14757); test: Kinase selectivity assay (CEREP HTRF panel); type: biochemical
[8] = biological target: CHK2 (Homo sapiens (Human), UniProt O96017); test: Kinase selectivity assay (CEREP HTRF panel); type: biochemical
CHK2, sequence (O96017 whole entry): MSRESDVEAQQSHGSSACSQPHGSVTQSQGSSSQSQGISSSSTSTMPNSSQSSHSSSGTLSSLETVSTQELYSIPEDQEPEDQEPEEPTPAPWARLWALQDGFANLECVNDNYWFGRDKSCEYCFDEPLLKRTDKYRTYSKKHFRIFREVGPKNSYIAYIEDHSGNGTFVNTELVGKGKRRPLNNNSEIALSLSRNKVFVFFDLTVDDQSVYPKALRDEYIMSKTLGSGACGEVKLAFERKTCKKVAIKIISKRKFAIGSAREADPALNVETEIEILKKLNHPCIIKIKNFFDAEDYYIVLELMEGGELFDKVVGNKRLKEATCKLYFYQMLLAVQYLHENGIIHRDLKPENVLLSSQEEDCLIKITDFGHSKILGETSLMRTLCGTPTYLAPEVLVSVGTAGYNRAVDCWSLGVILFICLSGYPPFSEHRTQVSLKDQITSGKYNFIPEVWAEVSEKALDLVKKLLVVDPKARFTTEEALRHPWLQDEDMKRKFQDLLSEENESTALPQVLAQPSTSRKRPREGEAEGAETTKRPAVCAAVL

[9] = biological target: c-Met kinase (Homo sapiens (Human), UniProt P08581); test: Kinase selectivity assay (CEREP HTRF panel); type: biochemical
[10] = biological target: CSK (Homo sapiens (Human), UniProt P41240); test: Kinase selectivity assay (CEREP HTRF panel); type: biochemical
[11] = biological target: EphB4 kinase (Homo sapiens (Human), UniProt P54760); test: Kinase selectivity assay (CEREP HTRF panel); type: biochemical
[12] = biological target: ERK1 (Homo sapiens (Human), UniProt P27361); test: Kinase selectivity assay (CEREP HTRF panel); type: biochemical
[13] = biological target: ERK2 (P42mapk) (Homo sapiens (Human), UniProt P28482); test: Kinase selectivity assay (CEREP HTRF panel); type: biochemical; conditions: read-out: % Inhibition @ 10 uM, ERK (P42mapk)
[14] = biological target: FGFR4 kinase (Homo sapiens (Human), UniProt P22455); test: Kinase selectivity assay (CEREP HTRF panel); type: biochemical
FGFR4 kinase, sequence (P22455 22-802): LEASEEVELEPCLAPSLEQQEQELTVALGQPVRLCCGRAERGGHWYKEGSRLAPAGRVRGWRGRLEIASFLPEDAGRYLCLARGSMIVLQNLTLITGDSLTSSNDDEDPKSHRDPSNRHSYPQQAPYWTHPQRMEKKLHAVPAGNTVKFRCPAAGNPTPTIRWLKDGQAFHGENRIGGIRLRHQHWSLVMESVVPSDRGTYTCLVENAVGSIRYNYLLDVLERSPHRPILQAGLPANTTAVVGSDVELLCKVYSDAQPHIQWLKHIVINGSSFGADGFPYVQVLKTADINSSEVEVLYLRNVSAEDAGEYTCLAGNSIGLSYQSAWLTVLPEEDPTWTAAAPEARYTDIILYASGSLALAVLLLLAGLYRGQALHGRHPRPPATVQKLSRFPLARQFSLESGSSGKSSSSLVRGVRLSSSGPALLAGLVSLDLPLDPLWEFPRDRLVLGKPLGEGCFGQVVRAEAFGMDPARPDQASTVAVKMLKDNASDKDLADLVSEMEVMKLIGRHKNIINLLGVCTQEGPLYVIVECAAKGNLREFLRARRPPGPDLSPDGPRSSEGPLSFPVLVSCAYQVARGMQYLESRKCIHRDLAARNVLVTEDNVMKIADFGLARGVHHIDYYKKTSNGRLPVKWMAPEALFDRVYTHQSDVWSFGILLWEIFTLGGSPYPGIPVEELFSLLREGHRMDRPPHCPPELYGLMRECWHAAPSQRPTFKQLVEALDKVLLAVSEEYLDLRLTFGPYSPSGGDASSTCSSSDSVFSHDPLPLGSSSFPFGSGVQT

[15] = biological target: FLT-1 kinase (VEGFR1) (Homo sapiens (Human), UniProt P17948); test: Kinase selectivity assay (CEREP HTRF panel); type: biochemical
[16] = biological target: FLT3 (Homo sapiens (Human), UniProt P36888); test: Kinase selectivity assay (CEREP HTRF panel); type: biochemical
FLT3, sequence (P36888 27-993): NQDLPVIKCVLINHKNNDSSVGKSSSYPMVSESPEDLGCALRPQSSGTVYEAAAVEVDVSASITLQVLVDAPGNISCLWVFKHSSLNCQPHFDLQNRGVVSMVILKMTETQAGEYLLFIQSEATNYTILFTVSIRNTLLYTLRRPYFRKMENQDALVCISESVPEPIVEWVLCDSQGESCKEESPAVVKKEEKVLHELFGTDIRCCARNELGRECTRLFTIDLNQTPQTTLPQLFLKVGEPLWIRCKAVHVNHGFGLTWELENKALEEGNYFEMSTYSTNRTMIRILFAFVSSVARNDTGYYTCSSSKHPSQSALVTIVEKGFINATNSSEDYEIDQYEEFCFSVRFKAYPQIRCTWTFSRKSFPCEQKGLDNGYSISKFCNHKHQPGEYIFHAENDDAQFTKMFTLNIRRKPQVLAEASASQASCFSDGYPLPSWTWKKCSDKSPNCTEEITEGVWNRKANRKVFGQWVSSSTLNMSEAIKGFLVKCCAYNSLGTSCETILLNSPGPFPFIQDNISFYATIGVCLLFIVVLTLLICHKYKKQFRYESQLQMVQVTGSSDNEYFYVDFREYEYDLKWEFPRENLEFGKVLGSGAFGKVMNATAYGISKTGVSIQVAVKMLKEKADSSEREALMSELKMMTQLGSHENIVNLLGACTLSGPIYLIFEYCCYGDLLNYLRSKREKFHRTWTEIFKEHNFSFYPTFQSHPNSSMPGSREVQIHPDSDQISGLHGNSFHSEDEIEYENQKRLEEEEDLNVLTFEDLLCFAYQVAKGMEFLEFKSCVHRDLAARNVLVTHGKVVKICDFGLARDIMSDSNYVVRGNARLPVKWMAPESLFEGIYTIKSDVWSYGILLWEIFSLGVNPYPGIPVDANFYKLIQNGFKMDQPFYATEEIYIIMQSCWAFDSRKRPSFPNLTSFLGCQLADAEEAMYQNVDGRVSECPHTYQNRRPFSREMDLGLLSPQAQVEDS
Experimental: (§2) The assays were performed using standard HTRF assay methods as documented by CEREP against the human orthologues of Ab1 kinase, Akt1/PKBa, AMPKa, BMX kinase (Etk), Brk, CaMK2a, CaMK4, CDC2/CDK1 (cycB), CHK1, CHK2, c-Met kinase, CSK, EphB4 kinase, ERK1, ERK2 (P42mapk), FGFR2 kinase, FGFR4 kinase, FLT-1 kinase (VEGFR1), FLT-3 kinase, Fyn kinase, IGF1R kinase, IRK (InsR), JNK 2, KDR kinase (VEGFR2), Lck kinase, Lyn kinase, MAPKAPK2, MEK1/MAP2K1, p38a kinase, p38d kinase, p38 g kinase, PDGFRb kinase, PDK1, PKA, PKCa, PKCb1, PKCb2, PKCg, Ret kinase, ROCK2, RSK2, Src kinase, Syk, and TRKA (Table 3).

[17] = biological target: Fyn kinase (Homo sapiens (Human), UniProt P06241); test: Kinase selectivity assay (CEREP HTRF panel); type: biochemical
[18] = biological target: IGF1R kinase (Homo sapiens (Human), UniProt P08069); test: Kinase selectivity assay (CEREP HTRF panel); type: biochemical
[19] = biological target: IRK (InsR) (Homo sapiens (Human), UniProt P06213); test: Kinase selectivity assay (CEREP HTRF panel); type: biochemical
[20] = biological target: JNK 2 (Homo sapiens (Human), UniProt P45984); test: Kinase selectivity assay (CEREP HTRF panel); type: biochemical
[21] = biological target: KDR kinase (VEGFR2) (Homo sapiens (Human), UniProt P35968); test: Kinase selectivity assay (CEREP HTRF panel); type: biochemical
KDR kinase (VEGFR2), sequence (P35968 20-1356): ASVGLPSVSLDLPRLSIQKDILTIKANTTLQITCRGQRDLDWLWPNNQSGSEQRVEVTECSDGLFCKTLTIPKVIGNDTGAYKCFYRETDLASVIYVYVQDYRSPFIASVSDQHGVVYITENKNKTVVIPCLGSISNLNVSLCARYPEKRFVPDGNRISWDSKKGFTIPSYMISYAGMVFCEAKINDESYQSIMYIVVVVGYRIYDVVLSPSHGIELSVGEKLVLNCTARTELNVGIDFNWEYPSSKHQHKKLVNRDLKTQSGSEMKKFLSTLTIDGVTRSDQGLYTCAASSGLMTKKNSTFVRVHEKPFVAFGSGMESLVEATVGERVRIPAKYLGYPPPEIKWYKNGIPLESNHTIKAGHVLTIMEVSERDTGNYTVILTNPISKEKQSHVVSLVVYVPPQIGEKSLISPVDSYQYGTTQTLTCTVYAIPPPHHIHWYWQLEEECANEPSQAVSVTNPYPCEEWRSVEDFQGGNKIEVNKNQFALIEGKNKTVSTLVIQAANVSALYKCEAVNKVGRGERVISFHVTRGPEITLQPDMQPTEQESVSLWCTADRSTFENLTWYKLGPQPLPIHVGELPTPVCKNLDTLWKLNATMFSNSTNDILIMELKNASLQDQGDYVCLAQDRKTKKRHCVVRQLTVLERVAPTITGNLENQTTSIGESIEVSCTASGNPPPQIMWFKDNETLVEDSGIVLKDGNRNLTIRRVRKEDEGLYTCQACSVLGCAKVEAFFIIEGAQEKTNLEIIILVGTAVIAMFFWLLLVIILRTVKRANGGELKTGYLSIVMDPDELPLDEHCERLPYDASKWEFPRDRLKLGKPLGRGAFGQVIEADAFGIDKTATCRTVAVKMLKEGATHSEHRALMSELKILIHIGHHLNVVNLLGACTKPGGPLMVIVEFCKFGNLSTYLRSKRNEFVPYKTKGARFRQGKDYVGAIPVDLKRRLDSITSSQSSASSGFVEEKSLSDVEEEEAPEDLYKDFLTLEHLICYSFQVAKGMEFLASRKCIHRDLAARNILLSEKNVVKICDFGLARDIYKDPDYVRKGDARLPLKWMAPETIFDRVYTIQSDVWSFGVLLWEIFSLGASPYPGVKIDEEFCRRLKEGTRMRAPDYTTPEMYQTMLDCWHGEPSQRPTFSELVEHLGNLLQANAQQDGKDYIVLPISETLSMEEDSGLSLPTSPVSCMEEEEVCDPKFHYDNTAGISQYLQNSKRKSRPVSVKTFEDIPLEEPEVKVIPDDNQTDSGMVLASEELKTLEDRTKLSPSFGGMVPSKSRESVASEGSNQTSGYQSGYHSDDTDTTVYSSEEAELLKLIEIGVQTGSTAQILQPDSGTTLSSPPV
Experimental: as §2

[22] = biological target: Lck (Homo sapiens (Human), UniProt P06239); test: Kinase selectivity assay (CEREP HTRF panel); type: biochemical
[23] = biological target: Lyn kinase (Homo sapiens (Human), UniProt P07948); test: Kinase selectivity assay (CEREP HTRF panel); type: biochemical
[24] = biological target: MAPKAPK2 (Homo sapiens (Human), UniProt P49137); test: Kinase selectivity assay (CEREP HTRF panel); type: biochemical
[25] = biological target: MEK1/MAP2K1 (Homo sapiens (Human), UniProt Q02750); test: Kinase selectivity assay (CEREP HTRF panel); type: biochemical
[26] = biological target: p38alpha kinase (Homo sapiens (Human), UniProt Q16539); test: Kinase selectivity assay (CEREP HTRF panel); type: biochemical
p38alpha kinase, sequence (Q16539 whole entry): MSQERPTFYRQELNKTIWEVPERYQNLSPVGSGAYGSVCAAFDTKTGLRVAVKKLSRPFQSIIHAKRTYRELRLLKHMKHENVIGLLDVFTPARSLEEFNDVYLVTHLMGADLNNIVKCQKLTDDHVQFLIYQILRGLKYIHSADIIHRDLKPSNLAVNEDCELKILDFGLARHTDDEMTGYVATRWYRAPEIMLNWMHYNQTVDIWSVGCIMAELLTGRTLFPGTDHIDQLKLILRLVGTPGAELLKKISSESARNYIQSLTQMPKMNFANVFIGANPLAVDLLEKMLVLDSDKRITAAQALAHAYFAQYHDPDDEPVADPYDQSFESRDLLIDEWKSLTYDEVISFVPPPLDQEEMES

[27] = biological target: p38delta kinase (Homo sapiens (Human), UniProt O15264); test: Kinase selectivity assay (CEREP HTRF panel); type: biochemical
[28] = biological target: p38gamma kinase (Homo sapiens (Human), UniProt P53778); test: Kinase selectivity assay (CEREP HTRF panel); type: biochemical
[29] = biological target: PDGFRbeta kinase (Homo sapiens (Human), UniProt P09619); test: Kinase selectivity assay (CEREP HTRF panel); type: biochemical
[30] = biological target: PDK1 (Homo sapiens (Human), UniProt O15530); test: Kinase selectivity assay (CEREP HTRF panel); type: biochemical
[31] = biological target: PKA (Homo sapiens (Human), UniProt P17612); test: Kinase selectivity assay (CEREP HTRF panel); type: biochemical
[32] = biological target: PKCalpha (Homo sapiens (Human), UniProt P17252); test: Kinase selectivity assay (CEREP HTRF panel); type: biochemical
[33] = biological target: PKCbeta 1 (Homo sapiens (Human), UniProt P05771); test: Kinase selectivity assay (CEREP HTRF panel); type: biochemical
[34] = biological target: PKCbeta 2 (Homo sapiens (Human), UniProt P05771); test: Kinase selectivity assay (CEREP HTRF panel); type: biochemical
[35] = biological target: PKCgamma (Homo sapiens (Human), UniProt P05129); test: Kinase selectivity assay (CEREP HTRF panel); type: biochemical
[36] = biological target: Ret kinase (Homo sapiens (Human), UniProt P07949); test: Kinase selectivity assay (CEREP HTRF panel); type: biochemical
Ret kinase, sequence (P07949 29-1114): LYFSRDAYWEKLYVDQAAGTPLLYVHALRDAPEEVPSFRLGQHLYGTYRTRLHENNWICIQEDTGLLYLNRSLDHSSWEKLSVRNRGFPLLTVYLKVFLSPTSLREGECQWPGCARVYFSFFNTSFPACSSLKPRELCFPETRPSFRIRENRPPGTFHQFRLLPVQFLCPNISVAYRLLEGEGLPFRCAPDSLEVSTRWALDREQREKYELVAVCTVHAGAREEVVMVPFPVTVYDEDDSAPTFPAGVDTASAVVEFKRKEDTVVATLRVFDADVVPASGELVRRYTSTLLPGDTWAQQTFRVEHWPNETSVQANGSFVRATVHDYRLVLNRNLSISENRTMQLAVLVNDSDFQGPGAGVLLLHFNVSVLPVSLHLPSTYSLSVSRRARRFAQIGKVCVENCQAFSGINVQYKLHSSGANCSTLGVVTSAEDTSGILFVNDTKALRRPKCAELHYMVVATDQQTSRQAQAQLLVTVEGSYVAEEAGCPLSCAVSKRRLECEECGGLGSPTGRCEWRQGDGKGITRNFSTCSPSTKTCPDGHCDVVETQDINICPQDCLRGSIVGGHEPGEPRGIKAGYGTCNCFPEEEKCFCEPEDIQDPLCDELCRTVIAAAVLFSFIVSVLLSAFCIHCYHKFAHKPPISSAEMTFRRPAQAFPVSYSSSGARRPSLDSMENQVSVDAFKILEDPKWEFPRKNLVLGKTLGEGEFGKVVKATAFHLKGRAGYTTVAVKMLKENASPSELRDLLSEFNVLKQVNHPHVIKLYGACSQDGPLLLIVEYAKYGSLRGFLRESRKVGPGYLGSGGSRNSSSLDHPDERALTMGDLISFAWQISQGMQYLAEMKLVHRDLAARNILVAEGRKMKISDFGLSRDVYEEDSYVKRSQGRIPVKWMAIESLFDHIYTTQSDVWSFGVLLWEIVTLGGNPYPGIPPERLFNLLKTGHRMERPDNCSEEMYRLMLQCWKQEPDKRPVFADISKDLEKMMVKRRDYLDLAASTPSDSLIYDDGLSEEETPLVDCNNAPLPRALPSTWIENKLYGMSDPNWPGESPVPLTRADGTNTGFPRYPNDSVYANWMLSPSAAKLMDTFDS

[37] = biological target: ROCK2 (Homo sapiens (Human), UniProt O75116); test: Kinase selectivity assay (CEREP HTRF panel); type: biochemical
[38] = biological target: RSK2 (Homo sapiens (Human), UniProt P51812); test: Kinase selectivity assay (CEREP HTRF panel); type: biochemical
[39] = biological target: Src kinase (Homo sapiens (Human), UniProt P12931); test: Kinase selectivity assay (CEREP HTRF panel); type: biochemical
[40] = biological target: TRKA (Homo sapiens (Human), UniProt P04629); test: Kinase selectivity assay (CEREP HTRF panel); type: biochemical
[41] = biological target: Aurora A (Homo sapiens (Human), UniProt O14965); test: Aurora A inhibition assay (Z-Lyte); type: biochemical
[42] = test system: AMPKalpha; test: Kinase selectivity assay (CEREP HTRF panel); type: biochemical, human
[43] = test system: HUV-EC-C cells; test: In vitro angiogenesis assay (tube formation); type: cell-based; conditions: 4 hr
Experimental: Activity against these RTKs can result in antiangiogenic activity which is associated with slowed tumor growth and/or tumor regression. To measure the antiangiogenic effects of compounds of the invention, selected examples were tested in an angiogenesis assay as described below.
HUV-EC-C cells were obtained from the American Type Culture Collection (ATCC, CRL-1730), and were used at early passage for the assay. The in vitro Angiogenesis Assay Kit (Chemicon) was used according to the manufacturer's recommendation. An ice-cold mixture of ECMatrix was transferred into a precooled 96-well plate. After the matrix solution had solidified (>1 hr incubation at 37° C.), 8,000 cells were mixed with the appropriate inhibitor concentration (in 100 microliters EGM-2) and plated into each well. The clinical antiangiogenic, Sutent was used as a positive control in comparison to a compound of the invention, A13. After incubation at 37° C. for 4 hr, tube formation was inspected. Two methods, pattern recognition and branch point counting, were used to quantify the progression of angiogenesis and expressed as a percentage of the control tube count (FIGS. 1 and 2).

[44] = biological target: PLK2 (Homo sapiens (Human), UniProt Q9NYY3); test: PLK2 inhibition assay (Z-Lyte); type: biochemical
Experimental: (§1) PLK2 inhibition was determined using the Z-Lyte assay kit from Invitrogen (cat #PV3802). The assay was performed using the recommended manufacturer's instructions with 60 μM ATP and 133 nM PLK2 (Invitrogen cat #PV4204). The % inhibition values were determined according to the manufacturer's directions and IC50 values were obtained using a non-linear 4 point logistic curve fit (XLfit4, IDBS)

[45] = biological target: PLK3 (Homo sapiens (Human), UniProt Q9H4B4); test: PLK3 inhibition assay (Z-Lyte); type: biochemical
Experimental: as §1, with “PLK3” for “PLK2”, “100” for “60”, “21” for “133”, “#PV3812).” for “#PV4204).”, “IDBS).” for “IDBS)”

[46] = biological target: CDC2/CDK1 (cycB) (Homo sapiens (Human), UniProt P06493); test: Kinase selectivity assay (CEREP HTRF panel); type: biochemical

O=C1Nc2ccccc2[C@]12C[C@H]2c1ccc2cn[nH]c2c1 (racemic) [Example A2, (1R*,2S*)-2-(1H-indazol-6-yl)spiro[cyclopropane-1,3′-indolin]-2′-one] was tested, and the inhibition at 10 µM [1] was 3%, the inhibition at 10 µM [2] was -2% and the inhibition at 10 µM [3] was -3%. It also gave an inhibition at 10 µM [4] of 1%, an inhibition at 10 µM [5] of 41% and an inhibition at 10 µM [6] of 7%. The inhibition at 10 µM [7] was -4%, the inhibition at 10 µM [8] was -10% and the inhibition at 10 µM [9] was 15%. For the same molecule, the inhibition at 10 µM [10] was 9%, the inhibition at 10 µM [11] was 11% and the inhibition at 10 µM [12] was 4%. The inhibition at 10 µM [13] was 9%, the inhibition at 10 µM [14] was 0% and the inhibition at 10 µM [15] was 1%. The inhibition at 10 µM [16] was 62%, the inhibition at 10 µM [17] was 7% and the inhibition at 10 µM [18] was 20%. It also gave an inhibition at 10 µM [19] of 4%, an inhibition at 10 µM [20] of -2% and an inhibition at 10 µM [21] of 14%. It also gave an inhibition at 10 µM [22] of 17%, an inhibition at 10 µM [23] of 26% and an inhibition at 10 µM [24] of -4%. The inhibition at 10 µM [25] was 4%, the inhibition at 10 µM [26] was 6% and the inhibition at 10 µM [27] was -10%. The inhibition at 10 µM [28] was 4%, the inhibition at 10 µM [29] was 4% and the inhibition at 10 µM [30] was 4%. It also gave an inhibition at 10 µM [31] of 0%, an inhibition at 10 µM [32] of -2% and an inhibition at 10 µM [33] of 1%. For the same molecule, the inhibition at 10 µM [34] was 4%, the inhibition at 10 µM [35] was 7% and the inhibition at 10 µM [36] was 14%. The inhibition at 10 µM [37] was 39%, the inhibition at 10 µM [38] was 17% and the inhibition at 10 µM [39] was -10%. The inhibition at 10 µM [40] was 54%.
For COc1ccc2c(c1)[C@]1(C[C@H]1c1ccc3c(-c4ccc(N5CCN(C)CC5)nc4)n[nH]c3c1)C(=O)N2 (relative stereo) [Example A13, (1R*,2S*)-5′-Methoxy-2-(3-(6-(4-methylpiperazin-1-yl)pyridin-3-yl)-1H-indazol-6-yl)spiro[cyclopropane-1,3′-indolin]-2′-one], the inhibition at 1 µM [41] was under 50%, the “% Inhibition @ 10 uM, AMPKalpha” value [42] was 8% and the inhibition at 10 µM [16] was 86%. The inhibition at 10 µM [21] was 6% and the “anti-angiogenic effect (tube formation)” value [43] was “anti-agiogenic effects at submicromolar concentrations”.
With O=C1Nc2ccccc2[C@]12C[C@H]2c1ccc2c(/C=C/c3ccncc3)n[nH]c2c1 (relative stereo) [Example A22, 1R*,2S*)-(E)-2-(3-(2-(pyridin-4-yl)vinyl)-1H-indazol-6-yl)spiro-[cyclo-propane-1,3′-indolin]-2′-one] the inhibition at 10 µM [44] was at most 50%, the inhibition at 10 µM [45] was at most 50% and the inhibition at 10 µM [1] was 97%. The inhibition at 10 µM [2] was -1%, the inhibition at 10 µM [3] was 71% and the inhibition at 10 µM [4] was 41%. For the same molecule, the inhibition at 10 µM [6] was -8%, the inhibition at 10 µM [46] was 93% and the inhibition at 10 µM [7] was 37%. It also gave an inhibition at 10 µM [8] of 4%, an inhibition at 10 µM [9] of 97% and an inhibition at 10 µM [10] of 99%. For the same molecule, the inhibition at 10 µM [11] was 99%, the inhibition at 10 µM [12] was 8% and the inhibition at 10 µM [13] was 11%. The inhibition at 10 µM [14] was 56%, the inhibition at 10 µM [16] was 100% and the inhibition at 10 µM [17] was 87%. The inhibition at 10 µM [18] was 22%, the inhibition at 10 µM [19] was 21% and the inhibition at 10 µM [20] was 32%. For the same molecule, the inhibition at 10 µM [21] was 98%, the inhibition at 10 µM [22] was 97% and the inhibition at 10 µM [23] was 99%. It also gave an inhibition at 10 µM [24] of 4%, an inhibition at 10 µM [25] of 12% and an inhibition at 10 µM [26] of 32%. The inhibition at 10 µM [27] was -22%, the inhibition at 10 µM [28] was -15% and the inhibition at 10 µM [29] was 88%. For the same molecule, the inhibition at 10 µM [30] was 69%, the inhibition at 10 µM [31] was -6% and the inhibition at 10 µM [32] was 7%. It also gave an inhibition at 10 µM [33] of 0%, an inhibition at 10 µM [34] of 11% and an inhibition at 10 µM [35] of 8%. The inhibition at 10 µM [36] was 99%, the inhibition at 10 µM [37] was 88% and the inhibition at 10 µM [38] was 48%. For the same molecule, the inhibition at 10 µM [39] was 26%, the inhibition at 10 µM [40] was 100% and the “anti-angiogenic effect (tube formation)” value [43] was “anti-agiogenic effects at submicromolar concentrations”.
